Data: US20070042507A1, “Composite nanoparticles” (priority 2003, published 2007)
Several values for one entry are separate records, joined by “and”; a condition that tells them apart may be missing. Equal entries are not always repeated. Where two headings read alike, the source gives them in different places.

What was measured:
[1] = cited from earlier work; for LogD value from literature: n-octanol/water; for logD, Literature Value: pH = 7.4, AstraZeneca in-house data
[2] = n-octanol/water logD by prior art shake-flask method
[3] = n-octanol/water logD with stock solution of n-octanol-charged nanoparticles (SC-CO2 delivery, example 10); conditions: pH 7.4
Procedure: 30 μL n-octanol was then added into the holder 6 by the use of a micro-pipettor. The autoclave vessel and the sample holder (30 ml in total volume) were charged and flushed with CO2 by opening and closing the valves between the two compartments and external outlets for a few times before the vessels were brought up to the desired pressure (150 bar). The temperature of the autoclave and sample holder was maintained at 40° C., to allow the dispersion of the small quantity of n-octanol into the porous particles. After 2 hours, the high pressure of the system was released to atmosphere very slowly.
An appropriate amount of n-octanol was added to provide a thin n-octanol layer covering the water phase (density of n-octanol is lower than water). The funnel was shaken for 5 to 10 minutes to allow mixing of the n-octanol with water. The funnel was then covered by aluminium foil to protect the solvent mixture from light degradation and evaporation. The funnel was placed in an upright position for 3 days to allow separation of the two phases. The n-octanol phase saturated with water was then collected.
The particles containing nanocomposite were dispersed into 5 mL of this saturated buffer solution to obtain a homogeneous stock-solution with a concentration of 0.0038 mL n-octanol per mL of solution. Partition coefficient measurements were carried out as described below, using such a stock solution prepared in the same way.
After shaking the mixed system for half an hour, the magnetic nanocomposites were precipitated in a few minutes by an external magnet placed near the bottom of the reactor-tube. UV-visible spectrophotometry was used to determine the absorption of analyte at the aqueous phase both before and after partitioning.
For the partition coefficient determination, stock solutions were prepared with a suitable n-octanol/nanoparticle ratio. […]
UV-visible spectrometry was used to quantitatively determine the drug concentration in aqueous phase before and after partitioning. […]

physchem [4] = assay: physchem
physchem [5] = assay: physchem; remark: listed apart in the source
[6] = pH 7.4, LogD value measured by present invention (pH = 7.4), single measurements, water:n-octanol 100:1
[7] = n-octanol/water, pH 7.4, LogD value measured (Prior art method) (pH = 7.4), single measurements, water:n-octanol 100:1
[8] = n-octanol/water, pH 7.4, Mean logD value measured (Prior art method) (ph = 7.4), mean of five, water:n-octanol 100:1
[9] = n-octanol/water, pH 7.4, logD, Shake-Flask Method, water/n-octanol 100, average of at least five, confidence level 95%
[10] = single measurements, water:n-octanol 100:1
[11] = pH 7.4, Mean logD value measured by present invention (pH = 7.4), mean of five, water:n-octanol 100:1
[12] = pH 7.4, logD, Magnetic nano-composite method, water/n-octanol 100, average of at least five, confidence level 95%
[13] = pH 7.4, LogD value measured (Prior art method) (pH = 7.4), single measurements, water:n-octanol 100:1
[14] = pH 7.4, Mean logD value measured (Prior art method) (ph = 7.4), mean of five, water:n-octanol 100:1

| Compound | logD [6] | logD [2, 7] | logD [2, 8] | logD [2, 9] | LogD value measured (Prior art method) (pH = 7.4) [2, 10] | logD [3] | logD [12] | LogD value from literature [1] | logD, Literature Value [1] | logD [11] | logD (physchem [4]; pH 7.4, LogD value measured (Prior art method) (pH = 7.4)) | logD (physchem [4]; pH 7.4, logD, Shake-Flask Method) | logD (physchem [5]; pH 7.4, LogD value measured by present invention (pH = 7.4)) | logD (physchem [5]; pH 7.4, logD, Magnetic nano-composite method) | LogD value measured by present invention (pH = 7.4) (single measurements, water:n-octanol 100:1, listed as 4-Nitroansiole) | logD [2, 13] | logD [2, 14] | logD ([2]; pH 7.4, logD, Shake-Flask Method, water/n-octanol 100, average of at least five, confidence level 95%) | LogD value measured by present invention (pH = 7.4) [10] |
| --- | --- | --- | --- | --- | --- | --- | --- | --- | --- | --- | --- | --- | --- | --- | --- | --- | --- | --- | --- |
| NC(=O)c1ccccc1 [Benzamide] | 0.0639 | – | – | – | – | – | – | – | – | – | – | – | – | – | – | – | – | – | – |
| O=[N+]([O-])c1ccc(CO)cc1 [4-Nitrobenzyl alcohol] | 1.27 | 1.25 | – | – | 1.264 and 1.244 and 1.256 | – | 1.27 ± 0.038 | 1.260 | 1.260 | 1.27 ± 0.0381 | – | – | – | – | – | – | – | – | – |
| COc1ccc([N+](=O)[O-])cc1 [4-Nitroanisole] | 2.01 | 2.01 | 2.01 ± 0.0077 | – | – | – | – | – | – | 2.013 ± 0.012 | 2.02 | 2.01 ± 0.008 | 2.01 | 2.013 ± 0.012 | 2.023 and 2.002 | – | – | – | – |
| O=[N+]([O-])c1ccc(O)cc1 [4-Nitrophenol] | 1.81 | – | – | – | 1.779 and 1.811 and 1.780 | 1.45 ± 0.026 | 1.49 ± 0.021 | 1.480 | 1.480 | 1.807 ± 0.0052 | – | – | – | – | – | 1.77 | 1.78 ± 0.019 | 1.486 ± 0.009 | – |
| Nc1ccccc1 [Aniline] | 0.963 | – | – | – | 0.945 and 0.929 and 0.926 and 0.932 | – | – | 0.900 | – | 0.973 ± 0.0303 | – | – | – | – | – | 0.936 | 0.934 ± 0.0094 | – | 0.990 and 0.935 and 0.989 |

Further lines, with some results ahead:

| logD [6] | logD [2, 7] | logD [2, 8] | logD [2, 9] | LogD value measured (Prior art method) (pH = 7.4) [2, 10] | logD [3] | logD [12] | Compound | LogD value from literature [1] | logD, Literature Value [1] | logD [11] | logD (physchem [4]; pH 7.4, LogD value measured (Prior art method) (pH = 7.4)) | logD (physchem [4]; pH 7.4, logD, Shake-Flask Method) | logD (physchem [5]; pH 7.4, LogD value measured by present invention (pH = 7.4)) | logD (physchem [5]; pH 7.4, logD, Magnetic nano-composite method) | LogD value measured by present invention (pH = 7.4) (single measurements, water:n-octanol 100:1, listed as 4-Nitroansiole) | logD [2, 13] | logD [2, 14] | logD ([2]; pH 7.4, logD, Shake-Flask Method, water/n-octanol 100, average of at least five, confidence level 95%) | LogD value measured by present invention (pH = 7.4) [10] |
| --- | --- | --- | --- | --- | --- | --- | --- | --- | --- | --- | --- | --- | --- | --- | --- | --- | --- | --- | --- |
| 2.19 | 2.12 | 2.116 ± 0.0039 | 2.116 ± 0.004 | 2.115 and 2.113 and 2.121 and 2.114 | 2.08 ± 0.073 | 2.186 ± 0.004 | c1ccc2ncccc2c1 [Quinoline] | 2.020 | 2.020 | 2.186 ± 0.0044 | – | – | – | – | – | – | – | – | – |
| 3.14 | 3.08 | 3.076 ± 0.0047 | 3.076 ± 0.005 | 3.074 and 3.083 | 3.17 ± 0.448 | 3.164 ± 0.011 | CN(C)CCCN1c2ccccc2Sc2ccc(Cl)cc21 [Chlorpromazine] | 3.200 | 3.200 | 3.164 ± 0.0111 | – | – | – | – | – | – | – | – | 3.179 and 3.186 and 3.124 |
